Reference: patent US9040707B2, “Bicyclic thiazoles as allosteric modulators of mGluR5 receptors” (Janssen Pharmaceutica NV, priority 2009, dated 2015)

Key:
[1] = target: T1, human mGluR5a receptor (Homo sapiens, UniProt P41594); experiment: Functional Assay 3: as Functional Assay 2 but clone H12H; assay type: cell-based; details: for EC50: glutamate EC20; for Emax: maximum average response at a single concentration
T1 construct: host or cells: HEK293A (monoclones H10H and H12H)
Method: HEK cells transfected with the human mGluR5a receptor (H10H cell line) were plated at 15.000 cells/well in clear-bottomed poly-D-lysine-coated assay plates (BD Falcon) in glutamate-glutamine-free growth medium and incubated overnight at 37° C. and 5% CO2. The following day, the growth medium was removed and the cells were washed with assay buffer containing 1× Hank's balanced salt solution (Invitrogen, Carlsbad, Calif.), 20 mM HEPES, 2.5 mM probenecid, pH 7.4 and left with 20 μL of this reagent. Following this step, the cells were loaded with calcium indicator dye, fluo-4 AM, to a final concentration of 2 μM and incubated for 40-45 min at 37° C. The dye solution was removed and replaced with assay buffer. Cell plates were held for 10-15 min at room temperature and were then loaded into the Functional Drug Screening System 6000 (FDSS 6000, Hamamatsu, Japan).
After establishment of a fluorescence baseline for about 3 seconds, the compounds of the present invention were added to the cells, and the response in cells was measured. 2.3 minutes later an EC20 concentration of the mGluR5 receptor agonist glutamate was added to the cells, and the response of the cells was measured for about 1.7 minutes. All test compounds were dissolved and diluted to a concentration of 10 mM in 100% DMSO and then serially diluted into assay buffer for a 2× stock solution in 0.6% DMSO; stock compounds were then added to the assay for a final DMSO concentration of 0.3% after the first addition to the assay well. Calcium fluorescence measures were recorded as fold over basal fluorescence; raw data was then normalized to the maximal response to glutamate. Potentiation of the agonist response of the mGluR5 receptor in the present invention was observed as an increase in response to submaximal concentrations of glutamate in the presence of compound compared to the response to glutamate in the absence of compound.
The concentration-response curves of compounds of the present invention, obtained in the presence of EC20 of mGluR5 receptor agonist glutamate to determine positive allosteric modulation, were generated using Microsoft Excel with IDBS XLfit add-ins. The raw data file containing all time points was used as the data source in the analysis template. This was saved by the FDSS as a tab-delimitted text file. Data were normalized using a static ratio function (F/F0) for each measurement of the total 350 values per well divided by each well's initial value. Data was then reduced as to peak amplitudes (Max−Initial Min) using a time range that starts approximately 1 second after the glutamate EC20 addition and continues for approximately 40 seconds. This is sufficient time to capture the peak amplitude of the cellular calcium response. Individual amplitudes were expressed as % effect by multiplying each amplitude by 100 and then dividing the product by the mean of the amplitudes derived from the glutamate ECMax-treated wells. pEC50 values for test compounds were generated by fitting the normalized values versus the log of the test compound concentration (in mol/L) using a 4 parameter logistic equation where none of the parameters were fixed. Each of the three values collected at each concentration of test compound were weighted evenly. Individual values falling outside the 95% prediction limits of the curve fit were automatically excluded from the fit. […] These two methods are in good agreement for curves with a clear plateau at the high concentration range. […] For consistency purposes across the range of potencies observed, all Emax values reported in this application are calculated using the maximum average response at a single concentration.
Functional Assay 3 was performed under the same conditions as Functional Assay 2, except that clone H12H was used instead of clone H10H.
The clones that were used in the primary functional assay gave undiscernable differences in this assay.

[2] = target: T2, human mGluR5 receptor (Homo sapiens, UniProt P41594); experiment: Functional Assay 1: intracellular Ca2+ mobilization, positive allosteric modulation of glutamate EC20 response; assay type: cell-based; details: maximum % effect relative to glutamate ECMax
T2 construct: expressed in transfected cells; host or cells: HEK-293
Method: HEK-293 cells were stable transfected with human mGluR5a cDNA in expression vector pcDNA4/TO. For Assay 1, these human mGluR5 receptor over-expressing HEK-293 cells were grown at a density of 40,000 cells/well in PDL-coated 384-well plates. The following day, cells were preloaded with the calcium-sensing dye Fluo-4 AM and various concentrations of test compound were added in the absence of exogenous glutamate to test for direct agonist activity. Shortly (2.5 min) thereafter, an EC20 equivalent of glutamate (˜0.2 μM) was added. The fluorescence signal was monitored using a Hamamatsu Functional Drug Screening System (FDSS) fluorescence plate reader following the addition of compound alone (direct agonist response) and then the further addition of an EC20 of glutamate (positive allosteric modulation response). The pEC50 was defined as the negative log of the test compound concentration which produced an increase in the glutamate EC20-mediated response that was 50% of maximum. Individual amplitudes were expressed as % effect by multiplying each amplitude by 100 and then dividing the product by the mean of the amplitudes derived from the glutamate ECMax-treated wells. Emax values reported in this application are defined as the maximum % effect obtained in a concentration-response curve.

[3] = test system: amphetamine-induced hyperlocomotion; experiment: Rat hyperlocomotion assay (reversal of amphetamine-induced hyperlocomotion); assay type: in vivo; details: male Sprague-Dawley rats; 3.0, 10.0, 30.0, 56.6 mg/kg p.o.; amphetamine sulphate 1.0 mg/kg s.c.; FIG. 1
Method: Locomotor activity was assessed as mean distance traveled (cm) in standard 16×16 photocell testing chambers measuring 43.2 cm (Length)×43.2 cm (Width)×30.5 cm (Height) (Med Associates, St. Albans, Vt.). Animals were habituated to individual activity chambers for at least 30 min prior to drug administration. Following administration of drug or vehicle, activity was recorded for a 90 minute time period. Data was expressed as the mean (±SEM) distance traveled recorded in 5 min intervals over the test period. The data was analyzed using repeated measures analysis of variance (ANOVA) followed by post-hoc testing using Dunnett's test, when appropriate. A difference was considered significant when p≦05. […]
The animals were habituated in Smart Open Field locomotor activity test chambers (Hamilton-Kinder, San Diego, Calif.) with 16×16 photobeams to automatically record locomotor activity for 30 min and then dosed with vehicle or test compound. […] At 60 min, all rats were injected subcutaneously with 1 mg/kg amphetamine or vehicle and then monitored for an additional 60 min. Animals are monitored for a total of 120 minutes. Data are expressed as changes in ambulation defined as total number of beam breaks per 5 min periods.
The data for the dose-response studies were analyzed by a between-group analysis of variance. […]

[4] = target: T1, human mGluR5a receptor; experiment: Functional Assay 2: Ca2+ mobilization, HEK cells with human mGluR5a receptor (H10H cell line); assay type: cell-based; details: HEK293; H10H cell line; maximum average response at a single concentration, relative to glutamate ECMax

T1 sequence (P41594 21-1180 isoform P41594-2 limits assumed): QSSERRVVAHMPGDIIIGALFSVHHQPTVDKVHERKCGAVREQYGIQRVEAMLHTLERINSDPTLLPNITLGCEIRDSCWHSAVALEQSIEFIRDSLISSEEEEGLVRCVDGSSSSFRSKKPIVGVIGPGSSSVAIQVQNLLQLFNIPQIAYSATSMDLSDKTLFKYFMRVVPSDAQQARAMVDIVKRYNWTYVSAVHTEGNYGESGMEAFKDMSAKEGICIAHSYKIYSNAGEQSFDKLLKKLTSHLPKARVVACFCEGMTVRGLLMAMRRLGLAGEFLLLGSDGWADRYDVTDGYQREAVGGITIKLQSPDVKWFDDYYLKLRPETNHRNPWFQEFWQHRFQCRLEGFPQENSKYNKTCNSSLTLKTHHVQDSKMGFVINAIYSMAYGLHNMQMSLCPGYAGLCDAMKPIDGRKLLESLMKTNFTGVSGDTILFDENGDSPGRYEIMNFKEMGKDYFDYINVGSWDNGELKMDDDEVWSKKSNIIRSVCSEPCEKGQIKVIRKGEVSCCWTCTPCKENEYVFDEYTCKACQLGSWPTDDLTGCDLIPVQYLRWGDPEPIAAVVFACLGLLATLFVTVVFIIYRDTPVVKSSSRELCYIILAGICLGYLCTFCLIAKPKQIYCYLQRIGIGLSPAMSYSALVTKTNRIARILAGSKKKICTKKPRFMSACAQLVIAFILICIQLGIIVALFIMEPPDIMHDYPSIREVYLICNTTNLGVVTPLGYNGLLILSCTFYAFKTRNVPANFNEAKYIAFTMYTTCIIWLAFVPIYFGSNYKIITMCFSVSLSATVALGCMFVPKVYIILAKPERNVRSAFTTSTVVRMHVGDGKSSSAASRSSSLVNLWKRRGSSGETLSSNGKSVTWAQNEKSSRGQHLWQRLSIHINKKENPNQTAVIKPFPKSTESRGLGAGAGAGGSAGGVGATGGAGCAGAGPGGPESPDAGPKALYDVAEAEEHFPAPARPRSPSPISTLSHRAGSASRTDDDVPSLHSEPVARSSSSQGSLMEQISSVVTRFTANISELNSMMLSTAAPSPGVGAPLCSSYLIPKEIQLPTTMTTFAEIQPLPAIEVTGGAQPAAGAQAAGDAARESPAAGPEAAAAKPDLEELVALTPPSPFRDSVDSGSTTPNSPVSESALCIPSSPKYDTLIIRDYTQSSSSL
T2 sequence (P41594 21-1180 isoform P41594-2 limits assumed): as above

Row | SMILES | melting point | EC50 [1] | Emax [1] | Emax [2] | reversal of amphetamine-induced hyperlocomotion [3] | Emax [4]
1 | C[C@@H](N1CCc2nc(COc3cccc(F)c3)sc2C1=O)C(C)(C)C [Compound 7, 2-[(3-fluorophenoxy)methyl]-6,7-dihydro-5-[(1R)-1,2,2-trimethylpropyl]-thiazolo[5,4-c]pyridin-4(5H)-one] | 87.2 to 87.8 °C | 1410 nM | 57% | – | – | –
2 | CN1CCc2nc(COc3ccccc3)sc2C1=O [Compound 8, 6,7-dihydro-5-methyl-2-(phenoxymethyl)-thiazolo[5,4-c]pyridin-4(5H)-one] | – | – | – | 88% | dose-dependent reversal effects | 77%
3 | O=C1c2sc(OCc3cccc(F)c3)nc2CCN1c1cccc(C(F)(F)F)c1 [Compound 30, 2-[(3-fluorophenyl)methoxy]-6,7-dihydro-5-[3-(trifluoromethyl)phenyl]-thiazolo[5,4-c]pyridin-4(5H)-one] | 108.2 to 108.9 °C | 933 nM | 58% | – | – | –
4 | C[C@@H](N1CCc2nc(OCc3cccc(F)c3)sc2C1=O)C(C)(C)C [Compound 77, 2-[(3-fluorophenyl)methoxy]-6,7-dihydro-5-[(1R)-1,2,2-trimethylpropyl]-thiazolo[5,4-c]pyridin-4(5H)-one] | – | > 30200 nM | 21% | – | – | –
